According to patent publication US20250207127A1, “PHYTOECDYSONES AND/OR 20-HYDROXYECDYSONE DERIVATIVES IN COMBINATION WITH AN ACTIVE INGREDIENT FOR RESTORING SMN EXPRESSION, FOR USE IN THE TREATMENT OF SPINAL MUSCULAR ATROPHY” (BIOPHYTIS, priority 2021, published 2025):
Strand notation (5' to 3'): a small letter for the sugar, then the base; units joined by * are phosphorothioate-linked, units joined directly phosphodiester-linked; [ ] holds rarer units or linkages, { } end groups; capitals alone tell only the bases. e = 2'-O-(2-methoxyethyl) (MOE); [5mC] = 5-methylcytosine

Columns and labels:
Type in all cases: in vivo, mouse
[1] = system: SMA mice (Smn^Δ7/Δ7; huSMN2^+/−); experiment: Weight evolution of severe SMA mice treated from P0; details: relative to mismatch ASO
Text: (§1) The antisense oligonucleotide (ASO) of sequence SEQ ID NO: 23 (5′-TCACTTTCATAATGCTGG-3′), of reference ISIS 396443, also known under the name ISIS-SMNRx, and called in the remainder of the description ASO 10-27, complementary to 18 bases (bases 10 to 27) of intron 7 of the SMN2 gene (targeting a site in intron 7, called ISS-N1, which represses the inclusion of exon 7 of the pre-messenger RNA (pre-mRNA) of the SMN2 gene) having modified nucleotides 2′-O-methoxyethyl on the 2′ carbon atom of deoxyribose for each base, with a phosphorothioate backbone and 5-methyl cytosines and the control ASO (denoted mismatch) of sequence SEQ ID NO°: 24 (5′-TTAGTTTAATCACGCTCG-3′) (Singh et al. 2006; Williams et al. 2009), were synthesised and purified as previously described (Baker et al. 1997, Hua et al. 2008; Passini et al., 2011). The oligonucleotides are resuspended at a concentration of 8 μg/μL in 0.9% NaCl and stored at −20° C.
(§2) On the day of injection, the ASO stock solution is diluted to the concentration of 2 μg/μL in 0.9% NaCl. Methylene blue 0.04% is added to the solution as an injection control. Newborn SMA mice receive a single dose of ASO 10-27 or ASO mismatch of 8 μg on the 1st post-natal day (PO) by unilateral intra-cerebro-ventricular injection using a Hamilton syringe and a 32G needle. The injection site is located 1 mm from the sagittal suture, between bregma and lambda, landmarks visible through the skin at PO. The needle is positioned perpendicular to the injection site on the surface of the skin and inserted approximately 3 mm deep to reach the lateral ventricle.
(§3) The complementary treatment BIO101 complexed with cyclodextrin is administered daily to the mice from the first post-natal day (PO) orally at a dose of 50 mg/kg using a pipette.
(§4) A severe SMA mouse model was used on a FVB/NRj genetic background, characterised by the invalidation of exon 7 of the murine Smn gene and expressing two copies of the human SMN2 transgene (Smn^Δ7/Δ7; huSMN2−/+) (Hsieh et al., 2000). The mice resulting from these crosses having the genotype “FVB/NRj-Smn^Δ7/Δ7 huSMN2−/+2 copies” are described as “SMA” (Hsieh et al., 2000). SMA mice were treated with either BIO101 alone or a mismatch ASO or an ASO 10-27 alone, or with an ASO 10-27+BIO101 combined treatment starting from PO. Survival (FIG. 1) and weight

[2] = system: SMA mice (Smn^Δ7/Δ7; huSMN2^+/−); experiment: Grip-test (muscle fatigability) of SMA mice; details: relative to mismatch ASO
Method: as §2, §3
(§5) We performed phenotypic analyses of severe SMA type 2 mice treated with BIO101 alone or a mismatch ASO or ASO 10-27 alone, or with an ASO 10-27+BIO101 combined treatment from PO. […] We, on the one hand, evaluated the movement capacities by the open-field test (FIG. 3), as well as the muscular fatigability by grip-test (FIG. 4), as previously described (Biondi et al., 2008; Branchu et al., 2013; Chali et al., 2016).
In order to assess the muscle fatigability, the grip strength of the mice's forelimbs was tested. […] The time spent hanging on is recorded. […]

[3] = system: SMA mice (Smn^Δ7/Δ7; huSMN2^+/−); experiment: Open-field test (movement capacities) of SMA mice; details: at P15, 5 minutes, mean±SEM
Method: as §2, with “ventricle. […]” for “ventricle.”
as §5
The device used for open-field testing consists of a plastic box measuring 28×28×5 cm with a field grid divided into 16 tiles measuring 7 cm×7 cm. […] The behavioural measurements were recorded by the experimenter during these 5 minutes and the total number of crossed tiles was recorded.

[4] = system: SMA mice (Smn^Δ7/Δ7; huSMN2^+/−); experiment: Survival of severe SMA mice treated from P0
Text: as §1, §2, §3, §4

[5] = SMA mice, ASO 8 μg single ICV injection at P0, BIO101 50 mg/kg oral daily from P0

Substance | increase of average weight ([1]; at P7) | increase of average weight ([1]; at P8) | increase of average weight ([1]; at P9) | increase of average weight ([1]; at P10) | improvement of resistance to fatigue (grip-test) ([2]; at P7) | improvement of resistance to fatigue (grip-test) ([2]; at P15) | total number of crossed tiles (open field) [3] | median survival [4, 5] | improvement in animal survival ([4]; median survival compared to mismatch ASO control group) | average lifespan of the mouse pups [4, 5]
5′-TCACTTTCATAATGCTGG-3′ (antisense eT*e[5mC]*eA*e[5mC]*eT*eT*eT*e[5mC]*eA*eT*eA*eA*eT*eG*e[5mC]*eT*eG*eG) [ASO 10-27, antisense oligonucleotide complementary to bases 10 to 27 of intron 7 of the SMN2 gene] | does not increase | 9.9% | 13.9% | 16% | not improved | 7.7% | 70±20 tiles | 18 days | 38% | 
5′-TTAGTTTAATCACGCTCG-3′ (listed as DNA, chemistry not given here) [mismatch ASO, control ASO (denoted mismatch)] |  |  |  |  |  |  |  | 13 days |  | 13 days
